The values that follow come from patent publication US6924283B2, “4-thioxo-4,7-dihydro-thieno[2,3-b]pyridine-5-carbothioamides as antiviral agents” (Pfizer, priority 2001, dated 2005).

Format in all cases: biochemical
One experiment concerns the target HSV polymerase (Human herpesvirus 1, UniProt P04293). Description: HSV polymerase assay (Table 1).
In a further experiment the target is T1, HCMV polymerase (Human cytomegalovirus, UniProt P08546).
T1 construct: made in house; host or cells: recombinant baculovirus-infected SF-9 cells
T1 sequence (P08546 whole entry): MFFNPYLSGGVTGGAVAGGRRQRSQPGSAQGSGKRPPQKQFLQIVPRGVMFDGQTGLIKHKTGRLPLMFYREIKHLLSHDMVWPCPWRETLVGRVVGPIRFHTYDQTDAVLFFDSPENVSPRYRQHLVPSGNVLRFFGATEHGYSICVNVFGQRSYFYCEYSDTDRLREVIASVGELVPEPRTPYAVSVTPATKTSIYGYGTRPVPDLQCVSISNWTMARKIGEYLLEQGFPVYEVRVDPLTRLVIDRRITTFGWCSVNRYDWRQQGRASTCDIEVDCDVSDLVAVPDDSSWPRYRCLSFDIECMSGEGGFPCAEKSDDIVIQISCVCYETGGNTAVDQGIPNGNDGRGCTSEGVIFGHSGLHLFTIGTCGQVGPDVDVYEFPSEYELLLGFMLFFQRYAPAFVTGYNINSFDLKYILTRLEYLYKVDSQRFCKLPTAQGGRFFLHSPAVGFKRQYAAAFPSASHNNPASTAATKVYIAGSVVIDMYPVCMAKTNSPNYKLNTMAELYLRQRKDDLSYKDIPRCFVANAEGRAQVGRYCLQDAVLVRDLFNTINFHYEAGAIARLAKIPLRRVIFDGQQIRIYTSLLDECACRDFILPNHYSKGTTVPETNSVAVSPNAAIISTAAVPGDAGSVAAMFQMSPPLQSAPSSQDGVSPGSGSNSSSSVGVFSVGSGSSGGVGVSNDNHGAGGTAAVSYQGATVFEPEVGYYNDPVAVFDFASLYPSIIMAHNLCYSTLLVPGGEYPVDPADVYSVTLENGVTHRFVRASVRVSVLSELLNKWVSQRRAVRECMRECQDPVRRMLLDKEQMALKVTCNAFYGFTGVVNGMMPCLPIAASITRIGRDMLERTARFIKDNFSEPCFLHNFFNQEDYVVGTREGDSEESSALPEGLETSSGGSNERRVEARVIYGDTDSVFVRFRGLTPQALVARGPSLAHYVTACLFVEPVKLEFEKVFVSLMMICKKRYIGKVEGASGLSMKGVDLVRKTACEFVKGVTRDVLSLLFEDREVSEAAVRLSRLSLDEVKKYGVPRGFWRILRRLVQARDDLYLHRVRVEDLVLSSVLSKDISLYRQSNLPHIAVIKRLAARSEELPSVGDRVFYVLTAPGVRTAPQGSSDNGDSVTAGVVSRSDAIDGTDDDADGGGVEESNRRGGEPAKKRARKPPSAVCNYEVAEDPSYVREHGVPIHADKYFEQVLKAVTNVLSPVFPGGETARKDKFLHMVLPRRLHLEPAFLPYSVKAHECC
Description: HCMV polymerase scintillation proximity assay (modified version). Particulars: modified SPA assay, compounds diluted in 100% DMSO, 4.5 mM DTT. The method, then: The HCMV polymerase assay is performed using a scintillation proximity assay (SPA) as described in several references, such as N. D. Cook, et al., Pharmaceutical Manufacturing International, pages 49-53 (1992); K. Takeuchi, Laboratory Practice, September issue (1992); U.S. Pat. No. 4,568,649 (1986); which are incorporated by reference herein. Reactions are performed in 96-well plates. The assay is conducted in 100 μl volume with 5.4 mM HEPES (pH 7.5), 11.7 mM KCl, 4.5 mM MgCl2, 0.36 mg/ml BSA, and 90 nM ^3H-dTTP. Assays are run with and without CHAPS, (3-[(3-cholamidopropyl)-dimethylammonio]-1-propane-sulfonate) at a final concentration of 2 mM. HCMV polymerase is diluted in enzyme dilution buffer containing 50% glycerol, 250 mM NaCl, 10 mM HEPES (pH 7.5), 100 μg/ml BSA, and 0.01% sodium azide. […] Plates are incubated 10 min. at 37° C., then equilibrated to room temperature, and counted on a Packard Topcount. Linear regressions are performed and IC50's are calculated using computer software.
A modified version of the above HCMV polymerase assay is performed as described above, but with the following changes: Compounds are diluted in 100% DMSO until final dilution into assay buffer. […] In Table 1, the term “nd” refers to activity data not determined.
(Scintillation proximity formats need no separation of bound from free tracer.)

The target in another experiment is VZV polymerase (Varicella-zoster virus, UniProt P09252). The experiment is described as follows: VZV polymerase assay (Table 1).
Chain of VZV polymerase (P09252 whole entry): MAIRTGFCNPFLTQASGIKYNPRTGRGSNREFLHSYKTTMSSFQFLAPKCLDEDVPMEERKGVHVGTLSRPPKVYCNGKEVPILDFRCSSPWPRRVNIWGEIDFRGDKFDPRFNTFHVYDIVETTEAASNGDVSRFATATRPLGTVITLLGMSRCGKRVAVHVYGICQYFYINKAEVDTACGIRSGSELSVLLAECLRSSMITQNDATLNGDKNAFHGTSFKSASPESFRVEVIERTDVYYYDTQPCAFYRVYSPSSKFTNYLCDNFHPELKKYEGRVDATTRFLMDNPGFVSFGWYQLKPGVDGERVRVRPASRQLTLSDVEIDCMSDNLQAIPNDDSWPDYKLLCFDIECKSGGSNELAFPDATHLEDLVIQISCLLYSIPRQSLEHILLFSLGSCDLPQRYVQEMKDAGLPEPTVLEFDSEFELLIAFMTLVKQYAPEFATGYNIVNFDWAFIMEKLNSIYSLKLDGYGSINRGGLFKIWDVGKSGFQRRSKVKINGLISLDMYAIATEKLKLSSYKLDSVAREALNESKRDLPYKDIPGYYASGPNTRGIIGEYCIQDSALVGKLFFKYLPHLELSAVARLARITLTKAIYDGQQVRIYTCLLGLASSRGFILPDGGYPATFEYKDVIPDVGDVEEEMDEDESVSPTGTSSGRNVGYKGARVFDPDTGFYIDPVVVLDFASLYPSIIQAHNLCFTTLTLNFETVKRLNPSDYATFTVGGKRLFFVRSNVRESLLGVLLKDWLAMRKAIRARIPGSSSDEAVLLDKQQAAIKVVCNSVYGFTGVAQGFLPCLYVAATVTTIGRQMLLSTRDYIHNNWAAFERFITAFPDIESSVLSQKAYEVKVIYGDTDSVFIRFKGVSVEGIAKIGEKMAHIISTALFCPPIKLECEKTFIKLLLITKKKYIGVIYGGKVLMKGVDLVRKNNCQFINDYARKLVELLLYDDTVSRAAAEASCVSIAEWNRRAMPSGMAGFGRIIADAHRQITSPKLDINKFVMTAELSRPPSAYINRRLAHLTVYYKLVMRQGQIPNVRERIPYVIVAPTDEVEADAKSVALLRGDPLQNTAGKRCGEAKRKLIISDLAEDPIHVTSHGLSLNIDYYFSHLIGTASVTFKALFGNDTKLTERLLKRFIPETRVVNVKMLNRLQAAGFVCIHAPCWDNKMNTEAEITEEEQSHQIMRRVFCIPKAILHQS

The structures appear in SMILES notation.

Chain of HSV polymerase (P04293 whole entry): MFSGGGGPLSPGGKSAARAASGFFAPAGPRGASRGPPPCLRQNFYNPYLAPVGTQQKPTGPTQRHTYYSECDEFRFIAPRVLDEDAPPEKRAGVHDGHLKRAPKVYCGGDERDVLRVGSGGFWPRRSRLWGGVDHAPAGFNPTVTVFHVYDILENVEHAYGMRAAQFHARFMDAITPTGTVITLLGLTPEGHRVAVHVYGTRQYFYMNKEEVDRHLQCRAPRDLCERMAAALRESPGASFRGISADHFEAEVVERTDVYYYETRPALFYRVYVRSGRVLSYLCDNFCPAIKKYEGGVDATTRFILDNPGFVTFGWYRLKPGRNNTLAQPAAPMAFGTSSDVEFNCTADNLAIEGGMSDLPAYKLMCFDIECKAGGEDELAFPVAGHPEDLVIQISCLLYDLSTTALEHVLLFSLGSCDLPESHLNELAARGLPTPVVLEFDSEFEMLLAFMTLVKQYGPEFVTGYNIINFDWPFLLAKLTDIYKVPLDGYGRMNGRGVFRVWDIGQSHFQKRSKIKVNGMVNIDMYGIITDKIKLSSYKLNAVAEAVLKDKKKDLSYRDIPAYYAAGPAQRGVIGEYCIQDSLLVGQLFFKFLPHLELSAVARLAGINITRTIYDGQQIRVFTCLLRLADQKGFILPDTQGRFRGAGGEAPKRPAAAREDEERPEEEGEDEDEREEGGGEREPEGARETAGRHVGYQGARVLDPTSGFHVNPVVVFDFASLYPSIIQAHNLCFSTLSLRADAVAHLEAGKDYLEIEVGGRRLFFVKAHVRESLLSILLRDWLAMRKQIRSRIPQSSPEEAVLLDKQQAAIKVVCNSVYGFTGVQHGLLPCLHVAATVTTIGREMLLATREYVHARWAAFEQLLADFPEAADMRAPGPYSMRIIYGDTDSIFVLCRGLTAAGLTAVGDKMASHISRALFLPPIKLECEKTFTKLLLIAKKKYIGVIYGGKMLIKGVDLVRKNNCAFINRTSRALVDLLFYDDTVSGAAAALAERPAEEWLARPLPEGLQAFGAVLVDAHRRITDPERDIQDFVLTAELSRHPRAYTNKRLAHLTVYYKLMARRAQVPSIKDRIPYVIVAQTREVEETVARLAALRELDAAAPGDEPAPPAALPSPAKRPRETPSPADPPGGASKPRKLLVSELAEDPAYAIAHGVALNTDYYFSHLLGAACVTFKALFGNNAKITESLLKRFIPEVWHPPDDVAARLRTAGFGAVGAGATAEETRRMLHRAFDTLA

As usually defined, the IC50 is the concentration at which inhibition is half-maximal. A higher IC50 goes with weaker potency in that assay. Regarding `Cn1cc(C(=S)NCc2ccc(Cl)cc2)c(=S)c2cc(CN3CCOCC3)sc21` [Example 1, N-(4-Chlorobenzyl)-7-methyl-2-(4-morpholinylmethyl)-4-thioxo-4,7-dihydrothieno[2,3-b]pyridine-5-carbothioamide], the IC50 on HSV polymerase came out at 360 nM; against HCMV polymerase it was 910 nM; against VZV polymerase, 130 nM.
